What was measured:
Experiment in all cases: cells
[1] = system: COR-L23; assay type: functional, cell-based, Homo sapiens; settings: Homo sapiens, COR-L23;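 also: cell viability assay measuring how strongly compounds suppress growth of COR-L23 cells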
Description: SANGER: Inhibition of human COR-L23 cell growth in a cell viability assay.

[2] = system: CTV-1; assay type: functional, cell-based; settings: Homo sapiens;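 also: growth inhibition of the cell line, read out with a cell viability assay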
Description: SANGER: Inhibition of human CTV-1 cell growth in a cell viability assay.

[3] = system: DEL; assay type: functional, cell-based; settings: Homo sapiens;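 also: growth inhibition of the human DEL cell line, read out with a cell viability assay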
Description: SANGER: Inhibition of human DEL cell growth in a cell viability assay.

[4] = system: DOK; assay type: functional, cell-based, Homo sapiens; settings: Homo sapiens, DOK;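 also: cell viability assay read-out, values reflect inhibition of cell growth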
Description: SANGER: Inhibition of human DOK cell growth in a cell viability assay.

[5] = system: DU-145; assay type: functional, cell-based, Homo sapiens; settings: Homo sapiens, DU-145
Description: SANGER: Inhibition of human DU-145 cell growth in a cell viability assay.

[6] = system: EW-11; assay type: functional, cell-based, Homo sapiens; settings: Homo sapiens, EW-11;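 also: growth inhibition of human EW-11 cells, measured with a cell viability assay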
Description: SANGER: Inhibition of human EW-11 cell growth in a cell viability assay.

[7] = system: GI-ME-N; assay type: functional, cell-based, Homo sapiens; settings: Homo sapiens, GI-ME-N;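 also: growth inhibition of human GI-ME-N cells, read out with a cell viability assay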
Description: SANGER: Inhibition of human GI-ME-N cell growth in a cell viability assay.

[8] = system: GMS-10; assay type: functional, cell-based, Homo sapiens; settings: Homo sapiens, GMS-10;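 also: growth inhibition of GMS-10 cells, read out as cell viability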
Description: SANGER: Inhibition of human GMS-10 cell growth in a cell viability assay.

[9] = system: GOTO; assay type: functional, cell-based, Homo sapiens; settings: Homo sapiens, GOTO;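 also: growth inhibition of GOTO cells, read out by a cell viability assay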
Description: SANGER: Inhibition of human GOTO cell growth in a cell viability assay.

[10] = system: GP5d; assay type: functional, cell-based, Homo sapiens; settings: Homo sapiens, GP5d;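 also: growth inhibition of human GP5d cells, read out with a cell viability assay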
Description: SANGER: Inhibition of human GP5d cell growth in a cell viability assay.

[11] = system: HCC1395; assay type: functional, cell-based, Homo sapiens; settings: Homo sapiens, HCC1395;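 also: growth inhibition of HCC1395 cells, read out by a cell viability assay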
Description: SANGER: Inhibition of human HCC1395 cell growth in a cell viability assay.

[12] = system: HGC-27; assay type: functional, cell-based, Homo sapiens; settings: Homo sapiens, HGC-27;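 also: growth inhibition of human HGC-27 cells, read out in a cell viability assay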
Description: SANGER: Inhibition of human HGC-27 cell growth in a cell viability assay.

[13] = system: HMV-2 cell line; assay type: functional, cell-based, Homo sapiens; settings: Homo sapiens, HMV-2;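 also: growth inhibition of HMV-II cells, read out with a cell viability assay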
Description: SANGER: Inhibition of human HMV-II cell growth in a cell viability assay.

[14] = system: HN; assay type: functional, cell-based, Homo sapiens; settings: Homo sapiens, HN
Description: SANGER: Inhibition of human HN cell growth in a cell viability assay.

[15] = system: HT; assay type: functional, cell-based; settings: Homo sapiens
Description: SANGER: Inhibition of human HT cell growth in a cell viability assay.

[16] = system: HuO-3N1; assay type: functional, cell-based, Homo sapiens; settings: Homo sapiens, HuO-3N1;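 also: cell viability readout used to measure how strongly compounds suppress proliferation of human HuO-3N1 cells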
Description: SANGER: Inhibition of human HuO-3N1 cell growth in a cell viability assay.

[17] = system: IA-LM; assay type: functional, cell-based, Homo sapiens; settings: Homo sapiens, IA-LM;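 also: cell viability assay measuring growth inhibition of human IA-LM cells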
Description: SANGER: Inhibition of human IA-LM cell growth in a cell viability assay.

[18] = system: KE-37; assay type: functional, cell-based; settings: Homo sapiens;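 also: growth inhibition of KE-37 cells, read out with a cell viability assay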
Description: SANGER: Inhibition of human KE-37 cell growth in a cell viability assay.

[19] = system: KP-N-YN; assay type: functional, cell-based; settings: Homo sapiens;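 also: growth inhibition of KP-N-YN cells, read out with a cell viability assay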
Description: SANGER: Inhibition of human KP-N-YN cell growth in a cell viability assay.

[20] = system: KYSE-450; assay type: functional, cell-based; settings: Homo sapiens;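 also: cell growth inhibition measured by a viability assay in human KYSE-450 cells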
Description: SANGER: Inhibition of human KYSE-450 cell growth in a cell viability assay.

[21] = system: LU-139; assay type: functional, cell-based; settings: Homo sapiens
Description: SANGER: Inhibition of human LU-139 cell growth in a cell viability assay.

[22] = system: LoVo; assay type: functional, cell-based; settings: Homo sapiens;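 also: growth inhibition of human LoVo cells, read out with a cell viability assay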
Description: SANGER: Inhibition of human LoVo cell growth in a cell viability assay.

[23] = system: MEG-01; assay type: functional, cell-based; settings: Homo sapiens;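 also: growth inhibition of MEG-01 cells, read out by a cell viability assay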
Description: SANGER: Inhibition of human MEG-01 cell growth in a cell viability assay.

[24] = system: MOLT-4; assay type: functional, cell-based; settings: Homo sapiens;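 also: growth inhibition of MOLT-4 cells, determined with a cell viability readout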
Description: SANGER: Inhibition of human MOLT-4 cell growth in a cell viability assay.

[25] = system: NCI-H2030; assay type: functional, cell-based, Homo sapiens; settings: Homo sapiens, NCI-H2030;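 also: growth inhibition of human NCI-H2030 cells, read out by a cell viability assay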
Description: SANGER: Inhibition of human NCI-H2030 cell growth in a cell viability assay.

[26] = system: NCI-H2052; assay type: functional, cell-based, Homo sapiens; settings: Homo sapiens, NCI-H2052;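 also: growth inhibition of NCI-H2052 cells, read out with a cell viability assay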
Description: SANGER: Inhibition of human NCI-H2052 cell growth in a cell viability assay.

[27] = system: NCI-H2170; assay type: functional, cell-based, Homo sapiens; settings: Homo sapiens, NCI-H2170;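 also: cell viability assay measuring growth inhibition of human NCI-H2170 cancer cells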
Description: SANGER: Inhibition of human NCI-H2170 cell growth in a cell viability assay.

[28] = system: NCI-H226; assay type: functional, cell-based, Homo sapiens; settings: Homo sapiens, NCI-H226;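 also: cell viability read-out used to gauge growth inhibition of the cells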
Description: SANGER: Inhibition of human NCI-H226 cell growth in a cell viability assay.

[29] = system: NCI-H2452; assay type: functional, cell-based, Homo sapiens; settings: Homo sapiens, NCI-H2452;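 also: growth inhibition of NCI-H2452 cells, read out with a cell viability assay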
Description: SANGER: Inhibition of human NCI-H2452 cell growth in a cell viability assay.

[30] = system: NCI-H720; assay type: functional, cell-based; settings: Homo sapiens;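 also: growth inhibition of human NCI-H720 cells determined by a cell viability assay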
Description: SANGER: Inhibition of human NCI-H720 cell growth in a cell viability assay.

[31] = system: NCI-H810; assay type: functional, cell-based, Homo sapiens; settings: Homo sapiens, NCI-H810;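 also: IC50 reflects inhibition of cancer cell line growth, read out with a cell viability assay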
Description: SANGER: Inhibition of human NCI-H810 cell growth in a cell viability assay.

[32] = system: NEC8; assay type: functional, cell-based, Homo sapiens; settings: Homo sapiens, NEC8;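 also: growth inhibition of human NEC8 cells, read out by a cell viability assay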
Description: SANGER: Inhibition of human NEC8 cell growth in a cell viability assay.

[33] = system: OS-RC-2; assay type: functional, cell-based, Homo sapiens; settings: Homo sapiens, OS-RC-2;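 also: growth inhibition of human OS-RC-2 cells, measured by a cell viability assay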
Description: SANGER: Inhibition of human OS-RC-2 cell growth in a cell viability assay.

[34] = system: OVCAR-3; assay type: functional, cell-based, Homo sapiens; settings: Homo sapiens, OVCAR-3;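 also: growth inhibition of human OVCAR-3 cells, determined by a cell viability assay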
Description: SANGER: Inhibition of human OVCAR-3 cell growth in a cell viability assay.

[35] = system: PC-14; assay type: functional, cell-based, Homo sapiens; settings: Homo sapiens, PC-14;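 also: cell viability assay measuring inhibition of PC-14 cell growth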
Description: SANGER: Inhibition of human PC-14 cell growth in a cell viability assay.

[36] = system: PSN1; assay type: functional, cell-based, Homo sapiens; settings: Homo sapiens, PSN1;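 also: suppression of growth of human PSN1 cells, read out by a cell viability assay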
Description: SANGER: Inhibition of human PSN1 cell growth in a cell viability assay.

[37] = system: RMG-I; assay type: functional, cell-based, Homo sapiens; settings: Homo sapiens, RMG-I;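 also: growth inhibition of human RMG-I cells, read out with a cell viability assay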
Description: SANGER: Inhibition of human RMG-I cell growth in a cell viability assay.

[38] = system: RT-112; assay type: functional, cell-based, Homo sapiens; settings: Homo sapiens, RT-112
[39] = system: SAS; assay type: functional, cell-based, Homo sapiens; settings: Homo sapiens, SAS;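 also: growth inhibition of SAS cells, read out with a cell viability assay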
[40] = system: SK-LMS-1; assay type: functional, cell-based, Homo sapiens; settings: Homo sapiens, SK-LMS-1;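 also: growth inhibition of human SK-LMS-1 cells, read out with a cell viability assay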
Description: SANGER: Inhibition of human SK-LMS-1 cell growth in a cell viability assay.

[41] = system: SK-N-FI; assay type: functional, cell-based, Homo sapiens; settings: Homo sapiens, SK-N-FI;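 also: cell viability assay measuring growth inhibition of human SK-N-FI cells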
Description: SANGER: Inhibition of human SK-N-FI cell growth in a cell viability assay.

[42] = system: TCC-SUP; assay type: functional, cell-based, Homo sapiens; settings: Homo sapiens, TCC-SUP;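 also: growth inhibition of TCC-SUP cells, read out with a cell viability assay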
Description: SANGER: Inhibition of human TCCSUP cell growth in a cell viability assay.

[43] = system: ASPC1; assay type: functional, cell-based, Homo sapiens; settings: Homo sapiens, ASPC1;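 also: growth inhibition of AsPC-1 cells, read out with a cell viability assay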
Description: SANGER: Inhibition of human AsPC-1 cell growth in a cell viability assay.

[44] = system: C-33-A; assay type: functional, cell-based, Homo sapiens; settings: Homo sapiens, C-33-A;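 also: cell viability assay measuring growth inhibition of C-33-A cells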
Description: SANGER: Inhibition of human C-33-A cell growth in a cell viability assay.

[45] = system: CAL-12T; assay type: functional, cell-based, Homo sapiens; settings: Homo sapiens, CAL-12T;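 also: growth inhibition of human CAL-12T cells, read out with a cell viability assay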
Description: SANGER: Inhibition of human CAL-12T cell growth in a cell viability assay.

[46] = system: CAL-51; assay type: functional, cell-based, Homo sapiens; settings: Homo sapiens, CAL-51;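 also: human CAL-51 cell line, growth inhibition read out via a cell viability assay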
Description: SANGER: Inhibition of human CAL-51 cell growth in a cell viability assay.

[47] = system: TE-9; assay type: functional, cell-based, Homo sapiens; settings: Homo sapiens, TE-9;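 also: cell growth inhibition, measured with a cell viability readout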
Description: SANGER: Inhibition of human TE-9 cell growth in a cell viability assay.

[48] = system: U2OS; assay type: functional, cell-based, Homo sapiens, U-2-OS; settings: Homo sapiens, U2OS;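 also: growth inhibition of human U-2-OS cells, determined with a cell viability assay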
Description: SANGER: Inhibition of human U-2-OS cell growth in a cell viability assay.

[49] = system: U-251; assay type: functional, cell-based, Homo sapiens; settings: Homo sapiens, U-251;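 also: growth inhibition of human U-251 cells, read out through a cell viability assay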
Description: SANGER: Inhibition of human U251 cell growth in a cell viability assay.

[50] = system: VA-ES-BJ; assay type: functional, cell-based, Homo sapiens; settings: Homo sapiens, VA-ES-BJ;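 also: growth inhibition of the VA-ES-BJ cell line, read out by a cell viability assay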
Description: SANGER: Inhibition of human VA-ES-BJ cell growth in a cell viability assay.

[51] = system: COLO-679; assay type: functional, cell-based, Homo sapiens; settings: Homo sapiens, COLO-679
Description: SANGER: Inhibition of human COLO-679 cell growth in a cell viability assay.

With `Cn1cncc1[C@@](N)(c1ccc(Cl)cc1)c1ccc2c(c1)c(-c1cccc(Cl)c1)cc(=O)n2C` [TIPIFARNIB] the IC50 [1] was 13.8 µM, the IC50 [2] was 4.58 µM and the IC50 [3] was 1.03 µM. The IC50 [4] was > 16 µM, the IC50 [5] was 8.66 µM and the IC50 [6] was > 16 µM. The IC50 [7] was > 16 µM, the IC50 [8] was > 16 µM and the IC50 [9] was > 16 µM. It also gave an IC50 [10] of 1.42 µM, an IC50 [11] of 14.9 µM and an IC50 [12] of 1.32 µM. For the same compound, the IC50 [13] was 0.216 µM, the IC50 [14] was > 16 µM and the IC50 [15] was 8.29 µM. The IC50 [16] was 4.17 µM, the IC50 [17] was 0.0475 µM and the IC50 [18] was 2.32 µM. The IC50 [19] was > 16 µM, the IC50 [20] was 0.729 µM and the IC50 [21] was > 16 µM. The IC50 [22] was 0.241 µM, the IC50 [23] was 3.61 µM and the IC50 [24] was 4.91 µM. For the same compound, the IC50 [25] was 2.35 µM, the IC50 [26] was > 16 µM and the IC50 [27] was 8.39 µM. The IC50 [28] was > 16 µM, the IC50 [29] was > 16 µM and the IC50 [30] was > 16 µM. For the same compound, the IC50 [31] was 1.63 µM, the IC50 [32] was > 16 µM and the IC50 [33] was 15 µM. For the same compound, the IC50 [34] was > 16 µM, the IC50 [35] was > 16 µM and the IC50 [36] was 1.11 µM. The IC50 [37] was > 16 µM, the IC50 [38] was 0.382 µM and the IC50 [39] was > 16 µM. For the same compound, the IC50 [40] was 0.184 µM, the IC50 [41] was > 16 µM and the IC50 [42] was 5.8 µM. The IC50 [43] was > 16 µM, the IC50 [44] was 4.49 µM and the IC50 [45] was 0.76 µM. The IC50 [46] was 3.53 µM, the IC50 [47] was > 16 µM and the IC50 [48] was > 16 µM. The IC50 [49] was 7.09 µM, the IC50 [50] was 2.36 µM and the IC50 [51] was 0.985 µM.
In the case of `C[C@]1(O)C[C@@H](c2nc(-c3ccc4ccc(-c5ccccc5)nc4c3)c3c(N)nccn32)C1` [LINSITINIB], the IC50 [1] is reported as > 2.56 µM, the IC50 [2] is reported as > 2.56 µM and the IC50 [3] is reported as > 2.56 µM. For the same compound, the IC50 [4] was 0.556 µM, the IC50 [5] was > 2.56 µM and the IC50 [6] was 0.284 µM. The IC50 [7] was > 2.56 µM, the IC50 [8] was > 2.56 µM and the IC50 [9] was > 2.56 µM. The IC50 [10] was > 2.56 µM, the IC50 [11] was > 2.56 µM and the IC50 [12] was > 2.56 µM. The IC50 [13] was 0.0885 µM, the IC50 [14] was > 2.56 µM and the IC50 [15] was > 2.56 µM. For the same compound, the IC50 [16] was > 2.56 µM, the IC50 [17] was > 2.56 µM and the IC50 [18] was > 2.56 µM. The IC50 [19] was > 2.56 µM, the IC50 [20] was > 2.56 µM and the IC50 [21] was > 2.56 µM. For the same compound, the IC50 [22] was > 2.56 µM, the IC50 [23] was > 2.56 µM and the IC50 [24] was > 2.56 µM. The IC50 [25] was > 2.56 µM, the IC50 [26] was > 2.56 µM and the IC50 [27] was > 2.56 µM. The IC50 [28] was > 2.56 µM, the IC50 [29] was > 2.56 µM and the IC50 [30] was > 2.56 µM. The IC50 [31] was > 2.56 µM, the IC50 [32] was > 2.56 µM and the IC50 [33] was > 2.56 µM. For the same compound, the IC50 [34] was > 2.56 µM, the IC50 [35] was > 2.56 µM and the IC50 [36] was > 2.56 µM. The IC50 [37] was > 2.56 µM, the IC50 [38] was > 2.56 µM and the IC50 [39] was > 2.56 µM. For the same compound, the IC50 [40] was > 2.56 µM, the IC50 [41] was > 2.56 µM and the IC50 [42] was > 2.56 µM. The IC50 [43] was > 2.56 µM, the IC50 [44] was > 2.56 µM and the IC50 [45] was > 2.56 µM. The IC50 [46] was > 2.56 µM, the IC50 [47] was > 2.56 µM and the IC50 [48] was > 2.56 µM. For the same compound, the IC50 [49] was > 2.56 µM, the IC50 [50] was > 2.56 µM and the IC50 [51] was > 2.56 µM.
With `Cc1ccc(Nc2nccc(N(C)c3ccc4c(C)n(C)nc4c3)n2)cc1S(N)(=O)=O` [PAZOPANIB] the IC50 [1] was > 8 µM, the IC50 [2] was 6.21 µM and the IC50 [3] was > 8 µM. The IC50 [4] was > 8 µM, the IC50 [5] was > 8 µM and the IC50 [6] was > 8 µM. For the same compound, the IC50 [7] was > 8 µM, the IC50 [8] was > 8 µM and the IC50 [9] was > 8 µM. The IC50 [10] was > 8 µM, the IC50 [11] was 2.58 µM and the IC50 [12] was 6.2 µM. The IC50 [13] was > 8 µM, the IC50 [14] was > 8 µM and the IC50 [15] was > 8 µM. For the same compound, the IC50 [16] was > 8 µM, the IC50 [17] was 7.93 µM and the IC50 [18] was > 8 µM. The IC50 [19] was > 8 µM, the IC50 [20] was > 8 µM and the IC50 [21] was > 8 µM. The IC50 [22] was > 8 µM, the IC50 [23] was > 8 µM and the IC50 [24] was > 8 µM. The IC50 [25] was > 8 µM, the IC50 [26] was > 8 µM and the IC50 [27] was > 8 µM. For the same compound, the IC50 [28] was > 8 µM, the IC50 [29] was > 8 µM and the IC50 [30] was > 8 µM. For the same compound, the IC50 [31] was 6.31 µM, the IC50 [32] was > 8 µM and the IC50 [33] was > 8 µM. The IC50 [34] was > 8 µM, the IC50 [35] was > 8 µM and the IC50 [36] was > 8 µM. The IC50 [37] was > 8 µM, the IC50 [38] was 1.1 µM and the IC50 [39] was > 8 µM. The IC50 [40] was > 8 µM, the IC50 [41] was > 8 µM and the IC50 [42] was > 8 µM. The IC50 [43] was > 8 µM, the IC50 [44] was > 8 µM and the IC50 [45] was > 8 µM. The IC50 [46] was > 8 µM, the IC50 [47] was > 8 µM and the IC50 [48] was > 8 µM. The IC50 [49] was > 8 µM, the IC50 [50] was > 8 µM and the IC50 [51] was > 8 µM.

Source: ChEMBL document CHEMBL1201861, “Genomics of Drug Sensitity in Cancer screening data, Wellcome Trust Sanger Institute”
